Consider two compounds from patent publication US7741344B2, “Process for preparing purified S-BEL and R-BEL and compositions thereof” (Washington University in St. Louis, priority 2002, dated 2010).

The assay addresses T1, recombinant human iPLA2γ (Homo sapiens, UniProt Q9NP80).
T1 construct: Recombinant full-length iPLA2γ was expressed in Sf9 cells; made in house; host or cells: Sf9 cells (washed membrane fraction, not purified)
T1 sequence (Q9NP80 1-782): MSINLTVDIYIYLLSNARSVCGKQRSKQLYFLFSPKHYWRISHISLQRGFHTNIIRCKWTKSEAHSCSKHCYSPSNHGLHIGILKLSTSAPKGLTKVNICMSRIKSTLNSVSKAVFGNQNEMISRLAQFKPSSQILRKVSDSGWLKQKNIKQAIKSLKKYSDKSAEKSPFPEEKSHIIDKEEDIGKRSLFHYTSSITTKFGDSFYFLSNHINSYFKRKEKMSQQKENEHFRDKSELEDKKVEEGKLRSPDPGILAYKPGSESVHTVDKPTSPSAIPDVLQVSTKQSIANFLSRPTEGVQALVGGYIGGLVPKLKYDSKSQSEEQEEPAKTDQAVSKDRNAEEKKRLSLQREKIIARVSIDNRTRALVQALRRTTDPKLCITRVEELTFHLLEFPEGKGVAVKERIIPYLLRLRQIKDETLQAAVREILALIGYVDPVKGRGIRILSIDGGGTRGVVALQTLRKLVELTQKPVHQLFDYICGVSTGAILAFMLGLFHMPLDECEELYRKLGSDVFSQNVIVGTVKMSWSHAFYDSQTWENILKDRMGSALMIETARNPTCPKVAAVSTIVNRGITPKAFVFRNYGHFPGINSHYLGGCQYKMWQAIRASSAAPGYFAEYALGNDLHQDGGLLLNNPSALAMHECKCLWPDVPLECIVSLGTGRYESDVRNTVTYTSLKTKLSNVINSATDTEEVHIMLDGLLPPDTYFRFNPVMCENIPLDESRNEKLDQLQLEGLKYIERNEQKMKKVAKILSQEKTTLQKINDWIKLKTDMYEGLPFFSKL
Put plainly: Assay of iPLA2γ inhibition by BEL (Sf9 cell membranes, radiolabeled phospholipid substrate). The assay is classed as biochemical. As for the experimental part: Recombinant iPLA2 Enzymes—Recombinant iPLA2β was expressed and purified from Sf9 cells as previously described (35). Recombinant full-length iPLA2γ was expressed in Sf9 cells and the membrane fraction was washed and isolated as previously described (24).
Assay of iPLA2β and iPLA2γ Inhibition by BEL—Purified recombinant iPLA2β or Sf9 cell membranes containing recombinant iPLA2γ were incubated with (R) BEL, (S) BEL, racemic BEL, or ethanol vehicle for 3 mm at 22° C. in the presence of 100 mM Tris-HCl (pH 7.0) and 4 mM EGTA (for iPLA2β) or 100 mM Tris-acetate (pH 8.0) and 4 mM EGTA (for iPLA2γ). The concentration of BEL used for each test ranged from 0 to 16 μM. L-α-1-palmitoyl-2-[1^14C]-arachidonyl-phosphatidylcholine (5 μM final concentration) or L-α-1-palmitoyl-2-[1-^14C]-oleoyl-phosphatidylcholine (5 μM final concentration) in ethanol was then added to each sample and incubated at 37° C. for 2 min. Reactions were terminated by extraction of radiolabeled products into butanol, and reactants and products were separated by thin layer chromatography using Whatman LK6D 60 Å Silica Gel plates with petroleum ether/ethyl ether/acetic acid (70:30:1) as the mobile phase. Regions corresponding to the migration of a fatty acid standard visualized by iodine staining were scraped into vials and radioactivity was quantified by scintillation spectrometry.
Panel A—Purified recombinant iPLA2β (1 μg/ml) in 100 mM Tris-HCl, pH 7.3 containing 1 mM EGTA was preincubated at 22° C. for 3 mm in the presence of the indicated concentrations of (R)-, (S)-, or rac-BEL or ethanol vehicle alone (1% final concentration). Radiolabeled substrate (L-α-1-palmitoyl-2-[1-^14C]-arachidonyl-phosphatidylcholine, 5 μM final concentration) was then added to each reaction and incubated at 37° C. for 2 min. Reactions were terminated by extraction of remaining substrate and products into butanol, separation by TLC, and quantification of released radiolabeled fatty acid by scintillation spectrometry as described in Experimental Procedures. Results are representative of four separate tests. Panel B—Washed Sf9 cell membranes containing recombinant human iPLA2γ were preincubated for 3 min with the indicated concentrations of (R)-, (S)-, or racemic BEL or ethanol vehicle alone (1% final concentration) in 100 mM Tris-acetate, pH 8.0 containing 1 mM EGTA at 22° C. Radiolabeled substrate (L-α-1-palmitoyl-2-[1-^14C]-oleoyl-phosphatidylcholine, 5 μM final concentration) was then added to each reaction and incubated at 37° C. for 2 min. Reactions were terminated by extraction of remaining substrate and products into butanol, separation by TLC, and quantification of released radiolabeled fatty acid by scintillation spectrometry as described in “Experimental Procedures”. Results are representative of four separate tests.

Usually IC50 stands for the concentration that inhibits the measured activity by half.

As to `O=C1O/C(=C/Br)CC[C@@H]1c1cccc2ccccc12` [(R)-BEL, (R)(E)-6-(bromomethylene)-3-(1-naphthalenyl)-2H-tetrahydropyran-2-one], the “selectivity for inhibition of iPLA2γ” value was 10 fold. Under “3 min preincubation, FIG. 4B”, the “inhibition of iPLA2γ, fold more potent than (S)-BEL” value is given as “approximately 10 fold”. In addition, for the setting “in words”, the “selectivity for iPLA2γ than iPLA2β” value is reported as “approximately an order of magnitude more selective”.
With `O=C1OC(=CBr)CCC1c1cccc2ccccc12` (racemic) [rac-BEL, Racemic (E)-6-(bromomethylene)-3-(1-naphthalenyl)-2H-tetrahydropyran-2-one], for the setting “FIG. 4B”, the “inhibitory potency on iPLA2γ relative to the enantiomers” value was “intermediate of that of (R)-BEL and (S)-BEL”. The IC50 (read-out: IC50 for iPLA2γ (range stated jointly for iPLA2β and iPLA2γ)) was in the range of 500 to 3000 nM.
